By Cmax is commonly meant the peak of the concentration-time curve. In general, bioavailability refers to dose-corrected exposure relative to a reference, in per cent. A high value points to good availability. Broadly, the Tmax is the time from dosing to the highest level.

The record followed here is patent publication US20010049372A1, “Antiviral nucleoside analogues” (BioChem Pharma Inc., priority 1998, published 2001).

A short description of series [1]: Pharmacokinetic study in male and female rats (single dose iv or po). The format is in vivo, rat. Particulars: for Cmax / bioavailability / Tmax: plasma; for Cmax: read-out: Cmax; for Tmax: read-out: Tmax (converted). How it is done:
Compound A(−), DAPD, and DXG were administrated as a single dose, either intravenously through the jugular vein at 10 mg/kg or orally at 20, 125, 500, 1000 or 2000 mg/kg. All rats were fasted for 12 hours prior to po dosing treatment. The vehicle used for both iv and po administrations was 0.1% carboxymethylcellulose and 0.1% Tween 80 in distilled water, acidified to pH 3.15 with 1N HCl. Blood samples were taken from rats at the times shown in the schedule below for all oral dosing. From a total of 10 rats for each administration, seven time points were taken for the intravenous through the jugular vein dosing (2, 5, 15, 30, 60, 120 and 240 min) and for the oral dosing (5-360 min) at 20 mg/kg, whereas two additional time points at 480 and 1440 min were taken for the oral doses of 125-2000 mg/kg. As a result, each time point was in quadruplicate, except for the 1440 minute time point when blood samples were taken through the jugular vein from all the rats prior to being euthanized.
Blood samples (1 ml) were collected from the rat tails into a vacutainer containing EDTA (3 ml) for both iv and po administrations. Plasma samples were prepared by centrifugation at 2000×g for 15 minutes at 4° C.
Plasma samples (diluted to 1 ml with water) were loaded onto the Abselut Nexus sorbent (#1210-3100) and drawn through under low vacuum (approximately 5′′ Hg). One milliliter of deionized water was added to the sorbent and drawn through under vacuum. The extraction column was dried for 1 minute using a high vacuum (>10′′ Hg). One milliliter of methanol was added to the Abselut Nexus column and the eluent was collected at 1-2 ml/min. The eluent was evaporated to dryness using a Speed Vac, and the samples were reconstituted in 120 μl H2O; 100 μl was used for injection.

Series [2] has as its system HepG2 cells. The series is described as follows: Mitochondria DNA toxicity assay. As to conditions: 28 days, up to 100 μM, the highest concentration tested (FIG. 1). The format is cell-based. How it is done:
Mitochondria DNA (mtDNA) toxicity of the compound A (−) was tested in HepG2 cells. The cells were cultured for 28 days under the compound treatment. Th cells were passaged once a week. However, the cell culture medium containing proper concentration of the compound was changed twice a week. Zalcitabine was used as a control. The toxicity was determined by measuring content ratio of mtDNA and nuclear DNA (28s rDNA) by a southern hybridization assay (de Muys et al., 1999). […]

Series [3] relates to Molt-4. The series is described as follows: Cellular toxicity by [3H]-thymidine uptake. As to conditions: Table 14; 72 hrs; read-out: CC50 (μM) [^3H]TTP incorporation in: Molt4. It counts as cell-based. The gist of the method: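 Cells plated at 1-2×10^3/well, pre-incubated 24 h, then exposed 72 h to 10-fold serial compound dilutions (10^−4 M to 10^−10 M). [3H]-thymidine was added for the final 18 h and DNA incorporation counted after hypotonic lysis and harvesting. CC50 derived from cpm relative to untreated controls.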

The structures appear in SMILES notation. Where two headings read alike, the source gives them in different places.

On to `Nc1nc(NC2CC2)c2ncn([C@H]3CO[C@@H](CO)O3)c2n1` [Compound A (-), (−)-(2R,4R)-2-hydroxymethyl-4-(2′-amino-6′-cyclopropylamino-purine-9′-yl)-1,3-dioxolane], for which, in series [1] (female rat, iv 10 mg/kg), the “AUG” value came out at 328 µg·min/mL, the “T-half elimination” value is listed as 36.9 min and the Cmax came to 22900 ng/mL. For the same compound, in series [1] (female rat, po 20 mg/kg), the “AUG” value came to 602 µg·min/mL, the “T-half elimination” value came out at 57.1 min, the bioavailability was found to be 92% and the Cmax was 5500 ng/mL. Besides, the time of peak concentration (Tmax) in series [1] (female rat, po 20 mg/kg) was 22.8 min. In series [1] (male rat, iv 10 mg/kg), the “AUG” value was 304 µg·min/mL, the “T-half elimination” value stood at 34.2 min and the Cmax turned out to be 19200 ng/mL. In addition, in series [1] (male rat, po 20 mg/kg), the “AUG” value was determined as 600 µg·min/mL, the “T-half elimination” value was found to be 72.5 min, the bioavailability amounted to 99% and the Cmax worked out at 4600 ng/mL. Also, the time of peak concentration (Tmax) in series [1] (male rat, po 20 mg/kg) was 23.4 min. The “mtDNA toxicity (content ratio of mtDNA and nuclear DNA, southern hybridization)” value in series [2] is reported as “did not show significant mtDNA toxicity”.
Consider `Nc1ccn([C@@H]2CS[C@H](CO)O2)c(=O)n1` [Lamivudine, lamivudine], for which, in series [3], the CC50 was greater than 100 µM.
